Laboratory results taken from patent US10005739B2, “Quinazolinone and isoquinolinone derivative” (CHUGAI SEIYAKU KABUSHIKI KAISHA, priority 2013, dated 2018).
pIC50: −log10 of the molar value.

The compounds below were run against DDR1 (Homo sapiens (Human), UniProt Q08345) (assay: Measurement of DDR1 enzyme inhibitory activity (phosphorylation of biotinylated peptide, time-resolved fluorescence)). Conditions: human DDR1 enzyme, biotinylated peptide phosphorylation; read-out: DDR1 enzyme inhibition assay IC50.
Sequence of DDR1 (Q08345 19-913): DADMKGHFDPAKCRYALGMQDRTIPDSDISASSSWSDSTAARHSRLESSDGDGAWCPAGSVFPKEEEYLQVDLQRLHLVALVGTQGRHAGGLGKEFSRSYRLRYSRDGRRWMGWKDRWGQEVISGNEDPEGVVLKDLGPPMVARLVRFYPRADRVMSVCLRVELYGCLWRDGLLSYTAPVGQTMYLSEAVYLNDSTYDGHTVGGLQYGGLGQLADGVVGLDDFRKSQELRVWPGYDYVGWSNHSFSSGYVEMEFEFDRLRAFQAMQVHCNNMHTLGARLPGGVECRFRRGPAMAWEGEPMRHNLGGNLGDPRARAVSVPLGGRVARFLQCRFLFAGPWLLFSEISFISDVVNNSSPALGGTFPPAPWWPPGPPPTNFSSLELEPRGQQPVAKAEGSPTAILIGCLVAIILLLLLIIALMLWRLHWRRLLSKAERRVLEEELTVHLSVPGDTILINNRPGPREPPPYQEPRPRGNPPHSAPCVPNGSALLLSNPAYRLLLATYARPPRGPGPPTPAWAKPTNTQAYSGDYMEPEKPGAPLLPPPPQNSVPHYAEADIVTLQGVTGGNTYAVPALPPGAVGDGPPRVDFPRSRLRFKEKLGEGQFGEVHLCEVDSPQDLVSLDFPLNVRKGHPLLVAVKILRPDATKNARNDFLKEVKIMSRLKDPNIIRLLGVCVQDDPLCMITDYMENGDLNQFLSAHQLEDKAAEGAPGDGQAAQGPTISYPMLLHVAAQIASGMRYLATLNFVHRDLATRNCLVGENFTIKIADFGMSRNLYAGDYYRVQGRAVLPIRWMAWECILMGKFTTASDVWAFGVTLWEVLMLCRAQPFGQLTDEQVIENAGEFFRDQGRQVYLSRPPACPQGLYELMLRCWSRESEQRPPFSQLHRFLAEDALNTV
Assay type: biochemical
Protocol: 1. Measurement of DDR1 Enzyme Inhibitory Activity
The DDR1 enzyme inhibitory activity was determined with human DDR1 enzyme prepared using the baculovirus expression system, based on the inhibitory activity of phosphorylation of a biotinylated peptide ([…]) by the enzyme. The phosphorylated biotinylated peptide was detected using time-resolved fluorescence, with an anti-phosphorylated tyrosine antibody conjugated with europium cryptate and streptavidin conjugated with XL665 which is a derivative of allophycocyanin.

| Structure (SMILES) | pIC50 |
| --- | --- |
| Cc1cc(Br)c2ncn(Nc3cc(Cl)ccc3[S+]([O-])c3ccccc3)c(=O)c2c1 (centres unmarked) [Compound B-13, 3-[2-(Benzenesulfinyl)-5-chloroanilino]-8-bromo-6-methylquinazolin-4-one] | 6.13 |
| Cc1cc(Br)c2ncn(Nc3cc(Cl)ccc3S(=O)(=O)c3ccccc3)c(=O)c2c1 [Compound B-14, 3-[2-(Benzenesulfonyl)-5-chloroanilino]-8-bromo-6-methylquinazolin-4-one] | 6.54 |
| N#Cc1ccc(Sc2ccccc2)c(Nn2cnc3ccc(C(F)(F)F)cc3c2=O)c1 [Compound B-15, 3-[[4-Oxo-6-(trifluoromethyl)quinazolin-3-yl]amino]-4-phenylsulfanylbenzonitrile] | 6.07 |
| N#Cc1ccc(S(=O)(=O)c2ccccc2)c(Nn2cnc3ccc(C(F)(F)F)cc3c2=O)c1 [Compound B-16, 4-(Benzenesulfonyl)-3-[[4-oxo-6-(trifluoromethyl)quinazolin-3-yl]amino]benzonitrile] | 5.83 |
| CCCc1ccc(Cl)cc1Nn1cnc2ccc(OC(F)(F)F)cc2c1=O [Compound B-17, 3-(5-Chloro-2-propylanilino)-6-(trifluoromethoxy)quinazolin-4-one] | 6.39 |
| CC(C)Cc1ccc(Cl)cc1Nn1cnc2ccc(OC(F)(F)F)cc2c1=O [Compound B-19, 3-[5-Chloro-2-(2-methylpropyl)anilino]-6-(trifluoromethoxy)quinazolin-4-one] | 6.48 |
| CCSc1ccc(C#N)cc1Nn1cnc2c(Br)cc(C)cc2c1=O [Compound C-1, 3-[(8-Bromo-6-methyl-4-oxoquinazolin-3-yl)amino]-4-ethylsulfanylbenzonitrile] | 6.96 |
| CCS(=O)(=O)c1ccc(C#N)cc1Nn1cnc2c(Br)cc(C)cc2c1=O [Compound C-2, 3-[(8-Bromo-6-methyl-4-oxoquinazolin-3-yl)amino]-4-ethylsulfonylbenzonitrile] | 6.80 |
| CCSc1ccc(C#N)cc1Nn1cnc2cc(C)c(Br)cc2c1=O [Compound C-5, 3-[(6-bromo-7-methyl-4-oxoquinazolin-3-yl)amino]-4-ethylsulfanylbenzonitrile] | 6.89 |
| CCS(=O)(=O)c1ccc(C#N)cc1Nn1cnc2cc(C)c(Br)cc2c1=O [Compound C-6, 3-[(6-Bromo-7-methyl-4-oxoquinazolin-3-yl)amino]-4-ethylsulfonylbenzonitrile] | 6.60 |
| CCSc1ccc(C#N)cc1Nn1cnc2ncc(Br)cc2c1=O [Compound C-7, 3-[(6-Bromo-4-oxopyrido[2,3-d]pyrimidin-3-yl)amino]-4-ethylsulfanylbenzonitrile] | 6.12 |
| CCS(=O)(=O)c1ccc(C#N)cc1Nn1cnc2ncc(Br)cc2c1=O [Compound C-8, 3-[(6-Bromo-4-oxopyrido[2,3-d]pyrimidin-3-yl)amino]-4-ethylsulfonylbenzonitrile] | 5.19 |
| CCSc1ccc(C#N)cc1Nn1cnc2ccc(C(F)(F)F)cc2c1=O [Compound C-9, 4-Ethylsulfanyl-3-[[4-oxo-6-(trifluoromethyl)quinazolin-3-yl]amino]benzonitrile] | 7.00 |
| CCSc1ccc(C#N)cc1Nn1cnc2c(Br)cc(C(F)(F)F)cc2c1=O [Compound C-11, 3-[[8-Bromo-4-oxo-6-(trifluoromethyl)quinazolin-3-yl]amino]-4-ethylsulfanylbenzonitrile] | 6.96 |
| CCSc1ccc(C#N)cc1Nn1cnc2c(Br)cc(OC(F)(F)F)cc2c1=O [Compound C-13] | 6.96 |
| CCSc1ccc(C#N)cc1Nn1cnc2ccc(OC(F)(F)F)cc2c1=O [Compound C-15, 4-Ethylsulfanyl-3-[[4-oxo-6-(trifluoromethoxy)quinazolin-3-yl]amino]benzonitrile] | 6.68 |
| CCS(=O)(=O)c1ccc(C#N)cc1Nn1cnc2ccc(OC(F)(F)F)cc2c1=O [Compound C-16, 4-Ethylsulfonyl-3-[[4-oxo-6-(trifluoromethoxy)quinazolin-3-yl]amino]benzonitrile] | 6.57 |
